Experiment: mn = molality of the nth substance listed, in mol/kg
Conditions: Liquid, isochoric method

CCCCCC[n+]1ccn(C)c1.O=S(=O)([N-]S(=O)(=O)C(F)(F)F)C(F)(F)F + O=C=O
Conditions | molar volume [m3/mol]
303.15 K, 228.1 kPa, m2 = 0.1549 | 0.0003078
303.15 K, 400.5 kPa, m2 = 0.277 | 0.0002962
303.15 K, 642.1 kPa, m2 = 0.4471 | 0.0002815
303.15 K, 786.2 kPa, m2 = 0.5432 | 0.0002738
303.15 K, 1036.5 kPa, m2 = 0.726 | 0.0002604
303.15 K, 1399.2 kPa, m2 = 0.9896 | 0.000243
303.15 K, 1689 kPa, m2 = 1.194 | 0.0002316
303.15 K, 1806.5 kPa, m2 = 1.29 | 0.0002265
303.15 K, 2065.3 kPa, m2 = 1.48 | 0.000217
303.15 K, 2289.9 kPa, m2 = 1.65 | 0.0002093
303.15 K, 2463.9 kPa, m2 = 1.782 | 0.0002037
303.15 K, 2819.3 kPa, m2 = 2.069 | 0.0001926
303.15 K, 3076.9 kPa, m2 = 2.267 | 0.0001856
303.15 K, 3555.5 kPa, m2 = 2.65 | 0.0001736
313.15 K, 337.1 kPa, m2 = 0.1947 | 0.0003066
313.15 K, 699.4 kPa, m2 = 0.4069 | 0.0002879
313.15 K, 1209.5 kPa, m2 = 0.7242 | 0.0002644
313.15 K, 1653.6 kPa, m2 = 1.006 | 0.0002471
313.15 K, 2111.8 kPa, m2 = 1.285 | 0.0002306
313.15 K, 2538.3 kPa, m2 = 1.615 | 0.0002177
313.15 K, 3188.6 kPa, m2 = 2.11 | 0.0001995
323.15 K, 465.7 kPa, m2 = 0.2272 | 0.0003063
323.15 K, 850.7 kPa, m2 = 0.4281 | 0.0002889
323.15 K, 1323.9 kPa, m2 = 0.6731 | 0.0002706
323.15 K, 1708.8 kPa, m2 = 0.8789 | 0.0002573
323.15 K, 2180.2 kPa, m2 = 1.152 | 0.0002419
323.15 K, 2704.6 kPa, m2 = 1.345 | 0.0002273
323.15 K, 3105.7 kPa, m2 = 1.546 | 0.0002172
333.15 K, 245.6 kPa, m2 = 0.1044 | 0.0003209
333.15 K, 519.1 kPa, m2 = 0.2209 | 0.0003096
333.15 K, 894.3 kPa, m2 = 0.3855 | 0.0002952
333.15 K, 1364.2 kPa, m2 = 0.6046 | 0.0002782
333.15 K, 1849.2 kPa, m2 = 0.8295 | 0.0002632
333.15 K, 2312.2 kPa, m2 = 1.051 | 0.0002501
333.15 K, 2799.2 kPa, m2 = 1.3 | 0.0002373
343.15 K, 474.1 kPa, m2 = 0.1783 | 0.0003165
343.15 K, 952.8 kPa, m2 = 0.3503 | 0.0003002
343.15 K, 1440.2 kPa, m2 = 0.553 | 0.0002849
343.15 K, 1937.6 kPa, m2 = 0.7557 | 0.0002707
343.15 K, 2453.7 kPa, m2 = 0.974 | 0.0002573
343.15 K, 2938.6 kPa, m2 = 1.181 | 0.0002461
343.15 K, 3446.9 kPa, m2 = 1.424 | 0.0002344
353.15 K, 502 kPa, m2 = 0.1643 | 0.0003208
353.15 K, 987.3 kPa, m2 = 0.3338 | 0.0003053
353.15 K, 1440.2 kPa, m2 = 0.4916 | 0.0002925
353.15 K, 1907.3 kPa, m2 = 0.6717 | 0.0002794
353.15 K, 2419.6 kPa, m2 = 0.8598 | 0.0002671
353.15 K, 2888.3 kPa, m2 = 1.037 | 0.0002567
